# Values quoted from earlier work as cited in publication PMC10654029 (The Journal of Biological Chemistry, 2023).
# Legend:
# [1] = system: Ba/F3 cells expressing METex14 L1195V; settings: Ba/F3 cells expressing METex14 L1195V vs WT
# [2] = system: Ba/F3 cells expressing METex14 F1200I; settings: Ba/F3 cells expressing METex14 F1200I vs WT
smiles,measurement,setting,value
CN1CCC(COc2cnc(-c3cccc(Cn4nc(-c5cccc(C#N)c5)ccc4=O)c3)nc2)CC1 [tepotinib],decrease of cellular potency compared with the WT,[1],~15 fold
same,decrease of cellular potency compared with the WT,[2],~15 fold
